Experimental data taken from patent US10801050B2, “Microorganism modified for the assimilation of levulinic acid” (priority 2015, dated 2020).

Test: In vitro validation of enzymatic activities: LC-MS/MS detection of levulinyl-CoA after incubation of purified proteins with substrates
Type: biochemical, Ralstonia eutropha
Conditions: purified proteins incubated with their respective substrates; reverse phase UPLC, negative ion MS/MS
Source text: To validate the activity of the candidates identified in Example 2 above with regard to reactions A1, A2 and B, their corresponding genes were cloned into the expression plasmid pPAL7 (Biorad®). In the case of QOKBZ9_CUPNH and Q0KC00_CUPNH, the corresponding genes were cloned in operon into the pPAL7. The resulting plasmids were transformed into E. coli BL21(DE3) strain.
The resulting strains were cultivated as described in patent application WO 2010/076324, incorporated herein by reference. Cells were collected by centrifugation and resuspended in potassium phosphate buffer 100 mM pH 7.6. Proteins were extracted by sonication and crude extracts were clarified by centrifugation. Recombinant protein purification was carried out using Biorad® PROfinity EXact cartridges according to the manufacturer's instructions. […]
Levulinyl-CoA was detected by reverse phase UPLC coupled to negative ion MS/MS, by searching for the transition from mass 864 (mass of levulinyl-CoA minus 1) to 408 (ion corresponding to the adenine part according to the protocol described by Zirrolli et al. 1994) as shown on FIG. 3.

## Q0KBZ9_CUPNH/Q0KC00_CUPNH: the 2 subunits of succinyl-CoA:3-ketoacid-coenzyme A transferase (EC 2.8.3.5), candidate for reaction A2
  detection of levulinyl-CoA in the reaction mixture (transition 864 to 408): presence of levulinyl-CoA
